From patent US12459940B2, “Oxazole compound as multi-targeted inhibitor of IRAK4 and BTK” (SHANGHAI FOSUN PHARMACEUTICAL INDUSTRIAL DEVELOPMENT CO., …, priority 2019, dated 2025)
Read-outs that look alike come from different tables or passages of the source.

What was measured:
[1] = tested on: TNF-α production in THP-1 cells; test: THP-1 cytological TNFa ELISA assay (LPS-stimulated); assay type: cell-based; details: Homo sapiens, TNF-α in culture supernatant, 150 ng/mL LPS, 18 hours
Experimental: THP-1 human acute […] leukemia cells were purchased from ATCC (Cat #TIB-202) and cultured at 37° C. in 5% CO2 incubator. The composition of medium was RPMI1640 (Gibco, Cat #22400-105), and the supplementary compositions were 10% FBS (Gibco, Cat #10091148); 1% PenStrep (Gibco, Cat #15140); 0.05 mM 2-Mercaptoethanol (Sigma, Cat #M6250).
TNF-α Elisa kit was used to detect the content of TNF-α in cell culture supernatant samples. TNF-α was produced by stimulating THP-1 cells with 150 ng/mL LPS (Sigma, Cat #L6529).
THP-1 cells cultured normally at logarithmic growth stage were seeded in a 96-well plate (Corning #3599) at a certain concentration (1*10^5/100 μL) and then put into a cell incubator for incubation. After two hours, 16.7 μL of different concentrations of the compound to be tested (8*final concentration) were added and incubated in an incubator. After one hour, 16.7 μL of 1200 ng/mL LPS was added and incubated in an incubator. After 18 hours, the culture supernatant samples were collected by centrifugation, and the content of TNF-α could be detected by TNF-α Elisa kit. Finally, OD signals (OD450-OD570) were read on envision board reader.
The OD450-OD570 signal value was converted into a percentage inhibition rate. Inhibition rate %=(ZPE−sample)/(ZPE−HPE)*100.
“HPE” refers to the OD450-OD570 signal value of the control well without LPS stimulated cells, and “ZPE” refers to the OD450-OD570 signal value of the control well with LPS stimulated cells. The IC50 value of the compound was calculated by XLFit in the excel add-in. Y=Bottom+(Top−Bottom)/(1+(IC50/X)^HillSlope). Equation: […]

[2] = tested on: OCI-LY10 human B-cell lymphoma cells; test: OCI-LY10 cell proliferation inhibition (CellTiter-Glo); assay type: cell-based; details: OCI-Ly10, 72 h, treated for 3 days
Experimental: OCI-LY10 human B-cell lymphoma cells were cultured in a 37° C., 5% CO2 incubator. The composition of medium was IMDM (GIBCO, Cat #12440053); the supplementary compositions were 20% FBS (Hyclone, Cat #SH30084.03); 1% PenStrep (Thermo, Cat #SV30010).
(§1) The tumor cell lines OCI-LY10 and TMD8 were used to detect the effect of the compound on inhibiting tumor cell proliferation in vitro. The tumor cell line was cultured in a 37° C., 5% CO2 incubator according to the culture conditions shown, and passaged regularly, then the cells in the logarithmic growth phase were taken, counted, and spread in a 96-well plate (the cells in each well were adjusted to an appropriate concentration, a total of […] per well was added). After incubating overnight in a 37° C., 5% CO2 incubator, drugs with different concentration gradients (10 μL of drug solution was added) were added and treated for 3 days, then 50 μL of CellTiter-Glo working solution was added to each well, and the cell plate was wrapped with aluminum foil to avoid light. The culture plate was shaken on an orbital shaker for 2 minutes to induce cell lysis, and placed at room temperature for 10 minutes to stabilize the luminescence signal, then the luminescence signal was detected on the 2104 EnVision plate reader.
(§2) The Inhibition rate (IR) of the tested compound was calculated using the following formula: IR (%)=(1−(RLU compound−RLU blank control)/(RLU solvent control−RLU blank control))*100%.
(§3) The inhibition rates of different concentrations of the compounds were calculated in Excel, and then the inhibition curves were made by GraphPad Prism software and the related parameters were calculated, including the minimum inhibition rate, the maximum inhibition rate and IC50.

human BTK = target: T1, human BTK (Homo sapiens, UniProt Q06187); test: In vitro BTK kinase activity, 33P isotope-labeled kinase activity assay (Reaction Biology Corp); assay type: biochemical; details: 33P-ATP, 2 hours at room temperature
T1 construct: purchased Reaction Biology Corp
T1 sequence (Q06187 whole entry): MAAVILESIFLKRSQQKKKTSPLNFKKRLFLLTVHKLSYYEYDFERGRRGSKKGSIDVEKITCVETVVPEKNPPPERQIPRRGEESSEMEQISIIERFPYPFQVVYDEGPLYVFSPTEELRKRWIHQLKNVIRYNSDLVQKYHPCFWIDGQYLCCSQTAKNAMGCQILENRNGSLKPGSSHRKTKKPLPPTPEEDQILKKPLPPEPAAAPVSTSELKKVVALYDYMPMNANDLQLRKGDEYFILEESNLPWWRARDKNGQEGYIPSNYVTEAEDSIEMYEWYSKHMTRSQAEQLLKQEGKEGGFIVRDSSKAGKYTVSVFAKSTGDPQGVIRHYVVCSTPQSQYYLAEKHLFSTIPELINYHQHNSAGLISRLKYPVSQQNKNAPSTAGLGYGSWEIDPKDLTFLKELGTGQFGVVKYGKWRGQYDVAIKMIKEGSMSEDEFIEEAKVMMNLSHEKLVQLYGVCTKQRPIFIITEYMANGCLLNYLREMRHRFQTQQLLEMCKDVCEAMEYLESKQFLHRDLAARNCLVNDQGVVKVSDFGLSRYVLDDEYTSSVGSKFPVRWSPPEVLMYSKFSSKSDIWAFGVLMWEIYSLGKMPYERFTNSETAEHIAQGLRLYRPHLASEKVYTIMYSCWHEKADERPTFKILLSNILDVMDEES
Experimental: The IC50 values were determined using ^33P isotope-labeled kinase activity assay (Reaction Biology Corp) to evaluate the inhibitory ability of the tested compounds on human BTK.
(§4) Buffer conditions: 20 mM Hepes (pH 7.5), 10 mM MgCl2, 1 mM EGTA, 0.02% Brij35, 0.02 mg/mL BSA, 0.1 mM Na3VO4, 2 mM DTT, 1% DMSO.
Test procedure: At room temperature, the tested compound was dissolved in DMSO to prepare a 10 mM solution for later use. The substrate was dissolved in a newly prepared buffer solution, and the tested BTK kinase was added thereto and mixed evenly. The compound dissolved in DMSO was added to the kinase reaction mixture through Echo 550 (Acoustic technology; Nanoliter range). After incubation for 20 minutes at room temperature, ^33P-ATP was added to initiate the reaction. The reaction was carried out at room temperature for 2 hours, and the radioactivity of the reaction liquid point was detected by filtration-binding method with P81 ion exchange filter paper. The kinase activity data were expressed by comparing the kinase activity of the group containing the tested compound with the kinase activity of the blank group (only containing DMSO), and the IC50 value was obtained by curve fitting by Prism4 software (GraphPad), the experimental results are shown in Table 10.

human IRAK4 = target: T2, human IRAK4 (Homo sapiens, UniProt Q9NWZ3); test: In vitro IRAK4 kinase activity, 33P isotope-labeled kinase activity assay (Reaction Biology Corp); assay type: biochemical
T2 construct: purchased Reaction Biology Corp
T2 sequence (Q9NWZ3 1-460): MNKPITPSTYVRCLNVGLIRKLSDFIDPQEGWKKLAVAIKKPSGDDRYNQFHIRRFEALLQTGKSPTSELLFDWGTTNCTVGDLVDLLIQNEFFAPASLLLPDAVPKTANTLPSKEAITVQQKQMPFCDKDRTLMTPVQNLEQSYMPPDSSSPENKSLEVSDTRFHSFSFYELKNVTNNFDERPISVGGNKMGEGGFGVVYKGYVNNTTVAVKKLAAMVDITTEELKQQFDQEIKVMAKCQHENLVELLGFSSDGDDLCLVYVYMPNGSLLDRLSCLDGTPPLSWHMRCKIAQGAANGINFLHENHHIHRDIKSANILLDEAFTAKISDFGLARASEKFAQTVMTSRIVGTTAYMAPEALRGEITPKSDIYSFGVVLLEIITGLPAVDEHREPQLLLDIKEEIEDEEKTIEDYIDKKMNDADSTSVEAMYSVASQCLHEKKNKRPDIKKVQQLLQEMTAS
Experimental: The IC50 values were determined using ^33P isotope-labeled kinase activity assay (Reaction Biology Corp) to evaluate the inhibitory ability of the tested compounds on human IRAK4.
as §4
Test procedure: At room temperature, the tested compound was dissolved in DMSO to prepare a 10 mM solution for later use. The substrate was dissolved in a newly prepared buffer solution, and the tested IRAK4 kinase was added thereto and mixed evenly. The DMSO solution dissolved with the tested compound was added to the above reaction mixture mixed evenly using acoustic technique (Echo 550). After incubation for 15 minutes, ^33P-ATP was added to initiate the reaction.

OCI-LY3 cell line = test: OCI-LY3 cell proliferation inhibition (CTG); assay type: cell-based; details: Homo sapiens, incubated for 72 hours
Experimental: The tumor cell line used in this experiment was provided by Nanjing Cobioer Biotechnology Co., Ltd. See Table 13 below for specific information.
The tumor cell lines OCI-LY3 were used to detect the effect of the compound on inhibiting tumor cell proliferation in vitro. The OCI-LY3 cell line was cultured in the corresponding medium at 37° C. and 5% CO2, and the logarithmic growth phase cells were used in the experimental plating. The cells were collected and centrifuged at 800 rpm for 5 minutes, and the culture medium was re-suspended and spread in a 96-well plate. After incubating overnight in a 37° C., 5% CO2 incubator, the cells with different concentration gradients (10 μL of prepared diluent of the tested compound) were incubated for 72 hours, and the cell culture plates were incubated with CTG reagent at room temperature and away from light for 30 minutes, and then recovered to room temperature. 100 μL/hole of CTG solution was added into the biosafety cabinet away from light, and the plate shaker was shaken and mixed evenly away from light for 2 minutes, and incubated at room temperature away from light for 10 minutes. The luminescence values were read and recorded using the Perkin Elmer Envision 2104 MuLtilabel Reader.
The results of luminescence values measured at each drug concentration were normalized with the luminescence values of the blank control group, and the ratio of this value to the DMSO group was taken as the cell inhibition rate (%). Using GraphPad software, the logarithm of drug concentration (log drug concentration) versus inhibition rate was plotted, and the software automatically fitted and calculated IC50 value and 95% confidence limit value by log (inhibitor) vs. normalized response algorithm of nonlinear regression.

[3] = tested on: TMD8 human B-cell lymphoma cells; test: TMD-8 cell proliferation inhibition (CellTiter-Glo); assay type: cell-based; details: TMD8, 72 h, treated for 3 days
Experimental: TMD8 human B-cell lymphoma cells were cultured in a 37° C., 5% CO2 incubator. The composition of medium was RPMI1640 (GIBCO, Cat #22400-089); the supplementary compositions were 10% FBS (Hyclone, Cat #SH30084.03); 1% PenStrep (Thermo, Cat #SV30010).
as §1, §2, §3

SMILES	IC50 [1]	IC50 [2]	IC50 (human BTK)	IC50 (human IRAK4)	IC50 (OCI-LY3 cell line)	IC50 [3]	IC50 (human IRAK4; 33P-ATP, 120 minutes at room temperature, read-out: IRAK4/IC50)
Cc1cc(-c2nc(C(=O)Nc3cn4cc(C(C)(C)O)nc4cc3N3CCCCC3)co2)ccn1 [WX040]	38 nM	87 nM	3.3 nM	1.2 nM	283 nM		
Cc1cc(-c2nc(C(=O)Nc3cn4cc(CCC(C)(C)O)nc4cc3-c3ccccc3)co2)ccn1 [WX021]	15 nM	171 nM	13.9 nM	0.5 nM		215 nM	
Cc1cc(-c2nc(C(=O)Nc3cn4cc(CCC(=O)O)nc4cc3N3CCC(C)(C)CC3)co2)ccn1 [WX016]	170 nM	466 nM	8.9 nM	0.9 nM		221 nM	
Cc1cc(-c2nc(C(=O)Nc3cn4cc(CCC(C)(C)O)nc4cc3N3CCC(C(C)(C)O)CC3)co2)ccn1 [WX045]		77 nM	28.6 nM		270 nM		3.4 nM
